From patent publication US20100055192A1, “MICRONIZED PARTICLES OF LOW-DOSAGE STRENGTH ACTIVE AGENTS FOR POWDER FORMULATIONS FOR INHALATION” (Chiesi Farmaceutici S.p.A., priority 2007, published 2010) come the findings set out here.

Holding throughout (format): physicochemical
Series [1] in a line: Particle size distribution by laser diffraction (Malvern apparatus). The note with it: for Particle size d (v, 0.05): volume diameter of 5% of the particles; for Particle size d (v, 0.1): volume diameter of 10% of the particles; for Particle size d (v, 0.5): volume diameter of 50% of the particles; for Particle size d (v, 0.9): volume diameter of 90% of the particles. Here is the method:
(§1) The particle size was determined by laser diffraction using a Malvern apparatus. The parameters taken into consideration were the VD in microns of 5%, 10%, 50%, and 90% of the particles expressed as d(v,0.05), d(v,0.1), d(v, 0.5), and d(v, 0.9), respectively, which correspond to the mass diameter assuming a size independent density for the particles. The Specific Surface Area (SSA) was determined by BET nitrogen adsorption using a Coulter SA3100 apparatus as a mean of three determinations.
(§2) Different batches of formoterol fumarate dihydrate were milled in a jet mill apparatus at different operating conditions in order to obtain different particle size distribution. The micronized batches were characterised in terms of particle size distribution and Specific Surface Area as reported in Example 1.

Series [2] in a line: Specific Surface Area by BET nitrogen adsorption (Coulter SA3100). The settings on record: mean of three determinations. Here is the method: as §1, §2
A short description of series [3]: Agglomerates after mixing with a carrier of coarser particles, detected by Near Infrared Spectrophotometer with microscope. The note with it: batch added to carrier of coarser particles; suitable time of mixing, or ten hours of mixing where agglomerates remained. As for the experimental part: (§3) The various batches were then added to a carrier made of coarser particles.
as §3

Where a name gives a salt, the structure may show the parent alone.

As for `COc1ccc(C[C@@H](C)NC[C@H](O)c2ccc(O)c3[nH]c(=O)ccc23)cc1` [carmoterol hydrochloride batch 5], in series [1], the “Particle size d (v, 0.05)” value came out at 0.48 μm; the “Particle size d (v, 0.1)” value was found to be 0.70 μm; the “Particle size d (v, 0.5)” value was 1.45 μm; the “Particle size d (v, 0.9)” value was found to be 2.75 μm. Further, in series [2], the “SSA (Specific Surface Area)” value worked out at 11.91 m^2/g. For the same compound, the “Agglomerates of the active ingredient in the formulation after mixing” value (“Agglomerates of the active ingredient” for short) in series [3] is recorded as “agglomerates where still present”.

Turning to `COc1ccc(C[C@@H](C)NC[C@H](O)c2ccc(O)c3[nH]c(=O)ccc23)cc1` [carmoterol hydrochloride batch 2], in series [1], the “Particle size d (v, 0.05)” value is 0.67 μm; the “Particle size d (v, 0.1)” value is reported as 0.85 μm; the “Particle size d (v, 0.5)” value is 2.03 μm; the “Particle size d (v, 0.9)” value came out at 4.31 μm. The “SSA (Specific Surface Area)” value in series [2] is on record as 9.68 m^2/g. The “Agglomerates of the active ingredient” value in series [3] is recorded as “no agglomerates were observed”.

As to `COc1ccc(C[C@@H](C)NC[C@H](O)c2ccc(O)c3[nH]c(=O)ccc23)cc1` [carmoterol hydrochloride batch 4], in series [1], the “Particle size d (v, 0.05)” value is 0.55 μm; the “Particle size d (v, 0.1)” value is recorded as 0.68 μm; the “Particle size d (v, 0.5)” value worked out at 1.58 μm; the “Particle size d (v, 0.9)” value is 3.40 μm. The “SSA (Specific Surface Area)” value in series [2] came out at 10.74 m^2/g. For the same compound, the “Agglomerates of the active ingredient” value in series [3] was “agglomerates where still present”.

As for `COc1ccc(C[C@@H](C)NC[C@H](O)c2ccc(O)c3[nH]c(=O)ccc23)cc1` [carmoterol hydrochloride batch 1], in series [1], the “Particle size d (v, 0.05)” value stood at 0.70 μm; the “Particle size d (v, 0.1)” value is on record as 0.94 μm; the “Particle size d (v, 0.5)” value is 2.16 μm; the “Particle size d (v, 0.9)” value is on record as 4.34 μm. In series [2], the “SSA (Specific Surface Area)” value is recorded as 9.70 m^2/g. In series [3], the “Agglomerates of the active ingredient” value is on record as “no agglomerates were observed”.

As to `COc1ccc(C[C@@H](C)NC[C@H](O)c2ccc(O)c3[nH]c(=O)ccc23)cc1` [carmoterol hydrochloride batch 3], in series [1], the “Particle size d (v, 0.05)” value turned out to be 0.58 μm; the “Particle size d (v, 0.1)” value was 0.59 μm; the “Particle size d (v, 0.5)” value was determined as 1.32 μm; the “Particle size d (v, 0.9)” value was found to be 2.75 μm. Further, the “SSA (Specific Surface Area)” value in series [2] stood at 18.11 m^2/g. The “Agglomerates of the active ingredient” value in series [3] is “agglomerates where still present”.

Take `COc1ccc(C[C@@H](C)NC[C@H](O)c2ccc(O)c3[nH]c(=O)ccc23)cc1` [carmoterol hydrochloride batch 6]: in series [1], the “Particle size d (v, 0.05)” value was 0.59 μm; the “Particle size d (v, 0.1)” value amounted to 0.73 μm; the “Particle size d (v, 0.5)” value worked out at 1.61 μm; the “Particle size d (v, 0.9)” value is recorded as 3.25 μm. Also, in series [2], the “SSA (Specific Surface Area)” value amounted to 11.80 m^2/g.
